Patent US5068222A, “Bombesin antagonists with deletion of net-residue at the C-terminus” (Imperial Chemical Industries PLC, priority 1987, dated 1991)
Where a SMILES comes first, the peptide text is derived from it. [ ]: non-standard residue; d: D form. The star is where a group is joined. Cbz = O=C(OCc1ccccc1)*

How the values were obtained:
[1] = tested on: bombesin-induced stimulation of the secretion of the enzyme amylase; conditions: rat, in vivo
Protocol: (c) An in vivo test involving the measurement of the antagonism of the bombesin-induced stimulation of the secretion of the enzyme amylase into the pancreatic duct of the rat by a test compound administered orally, sub-cutaneously or intravenously. Bombesin and the test compound can be administered concomitantly or the test compound can be predosed at any convenient interval, for example 30, 60, 90, 120, 150 or 180 minutes, before bombesin is dosed. Amylase was measured by analysis of the conversion of starch into maltose, on incubation of the starch/amylase mixture at 30° C. for 15 minutes, using a spectrophotometric assay as originally described by P. Bernfield in `Methods in Enzymology` Vol. I, p17 (Editors Colowick and Kaplan, Academic Press, New York, 1955). Bombesin (5 micrograms/kg, intravenously) causes a large, but submaximal, increase of amylase secretion within 30 minutes.

[2] = tested on: mouse Swiss 3T3 fibroblast cells; type: cell-based; conditions: 3 h
Protocol: (b) An in vitro assay which assesses the ability of a test compound to inhibit the Neuromedin C stimulated mitogenesis of mouse Swiss 3T3 fibroblast cells as determined by the uptake of [^3 H]-thymidine. The test is similar to those described by N. Corps., L. Rees and K. Brown, Biochem. Journal, 1985, 231, 781 and I. Zachary and E. Rozengurt, Proc. Nat. Acad. Sci. U.S.A., 1985, 82, 7616, except that GRP (18-27) (0.2 or 0.4 nM) was used to stimulate growth and the test compounds were dissolved in an assay medium containing 0.1% bovine serum albumin and 0.4% dimethylsulphoxide and […]

[3] = target: T1, bombesin receptor of mouse Swiss 3T3 fibroblast cells (Mus musculus, UniProt P21729); assay: Test (a): in vitro binding assay, displacement of [I125]GRP; conditions: ambient temperature, 1 hour
T1 construct: the bombesin receptor of mouse Swiss 3T3 fibroblast cells; endogenous in cells; host or cells: mouse Swiss 3T3 fibroblast cells
Protocol: (a) An in vitro binding assay which assesses the ability of a test compound to displace radiolabelled gastrin releasing peptide ([I^125 ]GRP) from the bombesin receptor of mouse Swiss 3T3 fibroblast cells. The test is similar to that described by I. Zachary and E. Rozengurt, Proc. Nat. Acad. Sci. U.S.A., 1985, 82, 7616, except that the cells are incubated at ambient temperature for 1 hour;

[4] = tested on: guinea pig pancreatic acini; conditions: cited from earlier work
[5] = tested on: bombesin-induced hypothermia; conditions: rat; cited from earlier work

T1 sequence (P21729 whole entry): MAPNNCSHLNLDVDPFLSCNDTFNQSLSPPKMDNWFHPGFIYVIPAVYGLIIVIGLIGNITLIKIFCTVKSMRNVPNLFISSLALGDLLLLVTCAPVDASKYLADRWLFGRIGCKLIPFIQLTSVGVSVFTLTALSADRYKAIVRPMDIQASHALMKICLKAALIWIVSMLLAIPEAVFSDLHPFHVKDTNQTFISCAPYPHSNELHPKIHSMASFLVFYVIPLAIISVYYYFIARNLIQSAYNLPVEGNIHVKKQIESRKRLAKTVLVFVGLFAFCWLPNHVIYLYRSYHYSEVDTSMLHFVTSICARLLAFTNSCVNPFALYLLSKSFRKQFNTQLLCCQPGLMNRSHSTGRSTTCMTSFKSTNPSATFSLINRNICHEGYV

Row | Compound | IC50 in test (c) [1] | IC50 [2] | bombesin-stimulated secretion of amylase [4] | also measured
1 | CNC(=O)[C@H](CC(C)C)NC(=O)[C@H](Cc1c[nH]cn1)NC(=O)[C@@H](C)NC(=O)[C@@H](NC(=O)[C@H](C)NC(=O)[C@H](Cc1c[nH]c2ccccc12)NC(=O)[C@H](Cc1c[nH]cn1)NC(C)=O)C(C)C [Ac-His-Trp-Ala-Val-D-Ala-His-Leu-NHMe] (Ac-HWAV[dA]HL-NHMe) | < 2 mg/kg | 28 nM |  | IC50 [3]: 19.5 nM
2 | COC(=O)[C@H](CC(C)C)NC(=O)[C@H](CCCCNC(=O)OCc1ccccc1)NC(=O)[C@@H](C)NC(=O)[C@@H](NC(=O)[C@H](C)NC(=O)[C@H](Cc1c[nH]c2ccccc12)NC(=O)[C@H](Cc1c[nH]cn1)NC(C)=O)C(C)C [Ac-His-Trp-Ala-Val-D-Ala-Lys(Z)-Leu-OMe] (Ac-HWAV[dA]K(Cbz)L-OMe) | 0.1 mg/kg | 0.1 nM |  | 
3 | [Tyr^4, D-Phe^12 ]bombesin |  |  | inhibited | 
4 | [D-Glp^7, D-Ala^11, Ala^14 ]bombesin (7-14) |  |  |  | antagonism of bombesin-induced hypothermia [5]: partial antagonist
5 | [D-Phe^12, Leu^14 ]bombesin |  |  | inhibited | 
6 | [D-Phe^12 ]bombesin |  |  | inhibited | 
